In patent US8957069B2, “Benzofuran derivatives” (Takeda Pharmaceutical Company Limited, priority 2009, dated 2015):

System: rat mixed glial culture
Experiment: Activity of promoting neuronal neogenesis in rat mixed glial culture
Type: cell-based
Settings: compound 1 μM + rhIGF-1 100 ng/ml, three days; anti-class III beta-tubulin, absorbance at 450 nm; control (rhIGF-1 only) = 100%
Experimental: From a three-day old SD rat, hippocampus and cerebral cortex were removed. By using a kit of dispersion liquid for neuronal cells (MB-X9901, manufactured by SUMITOMO BAKELITE CO., LTD.), cell suspension was prepared and then seeded on a 96-well plate coated with collagen Type I (4860-010, manufactured by Asahi Techno Glass Co., Ltd.) to 10^5 cells/well. Under the condition of 37° C. and 5% CO2, the cells were cultured for four days in a growth medium (D-MEM/F12 with 10% FBS, comprising PS).
After culturing, the medium was exchanged with a medium for differentiation (D-MEM/F12, comprising PS), added with rhIGF-1 (R&D Systems, 291-G1-250, final concentration of 100 ng/ml) and the compound to 1 μM, followed by further culture for three days. […] By using the plate reader (Labsystems Multiskan BICHROMATIC), absorbance at 450 nm was measured.
The absorbance for the case in which no compound is added (i.e., control, rhIGF-1 only) was 100%, and the increase ratio of the absorbance for the compound addition (i.e., compound+rhIGF-1) compared to the control was obtained as % control. Activity of the each compound for promoting neuronal differentiation that is measured according to the above method is summarized in Table 9 and Table 10.

Structure (SMILES): COc1ccc(N2CCN(c3c(C)c(C)c4c(c3C)CC(C)(CO)O4)CC2)cc1 (single isomer, unassigned; (+)) [Example 144, (+)-{5-[4-(4-methoxyphenyl)piperazin-1-yl]-2,4,6,7-tetramethyl-2,3-dihydro-1-benzofuran-2-yl}methanol]
- Increase Ratio of the Absorbance (% control): >500 % control
